From patent US20230330254A1 (Regeneron Pharmaceuticals, Inc., priority 2022, published 2023) come the findings set out here.

The term EC50 denotes the midpoint of the concentration-response curve.

Assay [1] deals with HEK293/CRE-Luc cells. Nature of the assay: Luciferase reporter assay, HEK293/CRE-Luc cells without GLP1R (Example 17). The assay is classed as cell-based, human. The following applies: HEK293/CRE-Luc cells without hGLP1R, payloads and linker-payloads; for EC50: read-out: EC50. From the text:
(§1) To test the activity of GLP1R agonist payloads, GLP1R agonist linker-payloads (LPs), and anti-GLP1R antibody tethered drug conjugates (ATDCs) of the invention, a cell-based cAMP responsive luciferase reporter assay was developed. To generate the assay cell line, the firefly luciferase gene was placed under the control of a cAMP response element (CRE) located upstream of a minimal promoter and transfected into HEK293 cells and referred to herein as HEK293/CRE-Luc cells.
(§2) Three-fold serial dilutions of free payloads or LPs were prepared in 100% DMSO, transferred to fresh assay media, and added to the cells at a final constant DMSO concentration of 0.2%. The last well in the plate served as a blank control containing only the assay media and 0.2% DMSO (untreated well) and was plotted as a continuation of the 3-fold serial dilution. Four to six hours later, luciferase activity was determined after the addition of One-Glo™ reagent (Promega, Cat #E6130) to each well. Relative light units (RLUs) were measured on an Envision luminometer (PerkinElmer) and EC50 values were determined using a four-parameter logistic equation over a 12-point dose response curve (GraphPad Prism). The signal to noise (S/N) was determined by taking the ratio of the highest RLU on the dose response curve to the RLU in the untreated wells. Data was generated across several experiments (A-E) with M2361 serving as a reference standard in each experiment to calculate the payload relative potency ((M2361 EC50/payload EC50)*100)) and relative S/N ((payload SN/M2361 SN)*100)).
A general note: A reporter such as luciferase makes a cellular process visible.

For assay [2], the target named is T1, human GLP1R (Homo sapiens, UniProt P43220). Nature of the assay: Luciferase reporter assay, HEK293/CRE-Luc/hGLP1R (Example 17). The assay is classed as cell-based. More on the design: engineered to express full-length human GLP1R, cynomolgus GLP1R; expressed in transfected cells; host or cells: HEK293/CRE-Luc. Conditions: HEK293/CRE-Luc/hGLP1R; for S/N: highest RLU / RLU of untreated wells; for EC50: payloads and linker-payloads, experiments A-E, M2361 repeated in each, read-out: EC50; for Relative Potency (% M2361 EC50) / Relative Signal:Noise (% M2361): relative to M2361 of the same experiment.
From the text: as §1, §2

Assay [3] concerns the target T1, human GLP1R. Nature of the assay: Human GLP1R cAMP accumulation assay. The assay is classed as cell-based. More on the design: HEK293 cells over-expressing full length human GLP-1R were utilized; expressed in transfected cells; host or cells: HEK293 (HEK293/hGLP1R). Conditions: HEK293/hGLP1R cells; Table 4; read-out: cAMP EC50. The method, then: 8.1 Human GLP1R cAMP Accumulation Assay (Cyclic AMP Determination)
The functional activity of the test compounds for agonizing GLP1R were evaluated using a cell-based assay. For the assay, HEK293 cells over-expressing full length human GLP-1R were utilized and the downstream cAMP accumulation was assessed as a measure of human GLP-1R stimulation. […] Diluted compounds were transferred to OptiPlates (100 nL/well) using an Echo liquid handler. HEK293/hGLP1R cells were thawed in 37° C. water-bath, washed 2 times with HBSS and re-suspended in assay buffer (HBSS+5 mM HEPES+500 μM IBMX+0.1% BSA). […] After centrifugation, the assay plate was incubated at 23° C. for 30 min. The reaction was terminated by adding 10 μL of lysis buffer containing D2-cAMP and a cAMP-antibody from the cyclic AMP immunoassay kit (Cisbio, Cat #62AM4PEJ). […] The levels of cAMP per well were calculated using a standard curve generated by GraphPad Prism. Percent activity was calculated according to the formula (% Activity=100%*(cAMP level-LC)/(HC-LC)). EC50 values were fitted from a four-parameter logistic equation over a 10-point response curve (GraphPad Prism).
In general terms: cAMP levels reflect the balance of adenylyl cyclase and phosphodiesterase activity.

Where a SMILES comes first, the peptide text is derived from it. [ ]: non-standard residue; d: D form. The star is where a group is joined. Bip(2'-Et,4'-O(CH2)4NH2) = CCc1cc(OCCCCN)ccc1-c1ccc(C[C@H](N)C(=O)O)cc1; Nva(5-(3,5-Me2Ph)) = Cc1cc(C)cc(CCC[C@H](N)C(=O)O)c1; Ala(1H-tetrazol-5-yl) = N[C@@H](Cc1nnn[nH]1)C(=O)O; αMePhe(2-F) = C[C@](N)(Cc1ccccc1F)C(=O)O; X6 = CC(C)(C(=O)NO)C(=O)*

T1 sequence (P43220 24-463): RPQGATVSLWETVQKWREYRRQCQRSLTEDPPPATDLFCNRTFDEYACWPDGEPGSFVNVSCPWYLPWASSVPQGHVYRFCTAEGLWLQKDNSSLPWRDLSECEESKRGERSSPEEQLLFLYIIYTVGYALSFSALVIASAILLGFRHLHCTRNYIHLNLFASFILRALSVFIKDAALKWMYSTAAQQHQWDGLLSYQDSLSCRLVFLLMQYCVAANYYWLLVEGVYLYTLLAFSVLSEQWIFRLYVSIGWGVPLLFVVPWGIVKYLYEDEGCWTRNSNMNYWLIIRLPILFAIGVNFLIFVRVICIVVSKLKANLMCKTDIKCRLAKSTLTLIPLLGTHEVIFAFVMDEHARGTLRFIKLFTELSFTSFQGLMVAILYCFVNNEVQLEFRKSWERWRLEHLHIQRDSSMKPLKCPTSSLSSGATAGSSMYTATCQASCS

`CCc1cc(OCCCCN)ccc1-c1ccc(C[C@H](NC(=O)[C@H](CC(=O)O)NC(=O)[C@H](CO)NC(=O)[C@@H](NC(=O)[C@](C)(Cc2ccccc2F)NC(=O)[C@@H](NC(=O)CNC(=O)[C@H](Cc2nn[nH]n2)NC(=O)C(C)(C)C(=O)NO)[C@@H](C)O)[C@@H](C)O)C(=O)N[C@@H](CCCc2cc(C)cc(C)c2)C(N)=O)cc1` [P5] (X6-[Ala(1H-tetrazol-5-yl)]GT[αMePhe(2-F)]TSD[Bip(2'-Et,4'-O(CH2)4NH2)][Nva(5-(3,5-Me2Ph))]-NH2): in assay [1], the S/N is 1.3 and the EC50 was above 200 nM. In addition, in assay [2], the S/N amounted to 50.6, the concentration for a half-maximal effect (EC50) was determined as 0.127 nM, the “Relative Potency (% M2361 EC50)” value is reported as 4.2% and the “Relative Signal:Noise (% M2361)” value is listed as 76.9%. In assay [3], the EC50 came to 0.115 nM.

Consider `CCc1cc(OCCCCN)ccc1-c1ccc(C[C@H](NC(=O)[C@H](CC(=O)O)NC(=O)[C@H](CO)NC(=O)[C@@H](NC(=O)[C@](C)(Cc2ccccc2F)NC(=O)[C@@H](NC(=O)CNC(=O)[C@H](Cc2nn[nH]n2)NC(=O)[C@@H](N)CO)[C@@H](C)O)[C@@H](C)O)C(=O)N[C@@H](CCCc2cc(C)cc(C)c2)C(N)=O)cc1` [P7] (H-S[Ala(1H-tetrazol-5-yl)]GT[αMePhe(2-F)]TSD[Bip(2'-Et,4'-O(CH2)4NH2)][Nva(5-(3,5-Me2Ph))]-NH2), for which, in assay [1], the S/N is recorded as 1.0 and the EC50 was above 200 nM. Besides, in assay [2], the S/N was 48.4, the EC50 was 1.89 nM, the “Relative Potency (% M2361 EC50)” value was 0.3% and the “Relative Signal:Noise (% M2361)” value was determined as 73.6%. Besides, the EC50 in assay [3] was 2.06 nM.

In the case of `CCc1cc(OCCCCNC(=O)CNC(=O)CNC(=O)CNC(=O)CNC(=O)[C@H](CO[C@@H]2O[C@H](CO)[C@@H](O)[C@H](O)[C@H]2O)NC(=O)CCNC(=O)OC[C@@H]2[C@@H]3CCC#CCC[C@@H]32)ccc1-c1ccc(C[C@H](NC(=O)[C@H](CC(=O)O)NC(=O)[C@H](CO)NC(=O)[C@@H](NC(=O)[C@](C)(Cc2ccccc2F)NC(=O)[C@@H](NC(=O)CNC(=O)[C@H](Cc2nn[nH]n2)NC(=O)C(C)(C)C(=O)NCCc2cnc[nH]2)[C@@H](C)O)[C@@H](C)O)C(=O)N[C@@H](CCCc2cc(C)cc(C)c2)C(N)=O)cc1` [LP18, BCN NHC2 H4CO (glucose) SG4-P9], in assay [1], the S/N is on record as 1.1 and the EC50 was above 200 nM. Further, in assay [2], the S/N is on record as 62.1, the 50% effective concentration (EC50) was 0.0467 nM, the “Relative Potency (% M2361 EC50)” value amounted to 11.4% and the “Relative Signal:Noise (% M2361)” value stood at 94.4%. Further, the EC50 in assay [3] stood at 0.458 nM.

Consider `CCc1cc(OCCCCN)ccc1-c1ccc(C[C@H](NC(=O)[C@H](CC(=O)O)NC(=O)[C@H](CO)NC(=O)[C@@H](NC(=O)[C@](C)(Cc2ccccc2F)NC(=O)[C@@H](NC(=O)CNC(=O)[C@H](Cc2nn[nH]n2)NC(=O)C(C)(C)C(=O)NCCc2cnc[nH]2)[C@@H](C)O)[C@@H](C)O)C(=O)Nc2ccccc2)cc1` [P22], for which, in assay [1], the S/N was 1.5 and the EC50 was above 200 nM. In assay [2], the S/N was 48.9, the EC50 was 0.44 nM, the “Relative Potency (% M2361 EC50)” value is on record as 1.2% and the “Relative Signal:Noise (% M2361)” value is 74.4%. Besides, the EC50 in assay [3] is 0.603 nM.

As to `CCc1cc(OCCCCNC(=O)[C@H](CO)NC(=O)CNC(=O)CNC(=O)CNC(=O)CNC(=O)CCC(=O)N2Cc3ccccc3C#Cc3ccccc32)ccc1-c1ccc(C[C@H](NC(=O)[C@H](CC(=O)O)NC(=O)[C@H](CO)NC(=O)[C@@H](NC(=O)[C@](C)(Cc2ccccc2F)NC(=O)[C@@H](NC(=O)CNC(=O)[C@H](Cc2nn[nH]n2)NC(=O)C(C)(C)C(=O)NCCc2cnc[nH]2)[C@@H](C)O)[C@@H](C)O)C(=O)N[C@@H](CCCc2cc(C)cc(C)c2)C(=O)Nc2ccccc2)cc1` [LP15, DIBAC- suc-G4S- P23], in assay [1], the S/N is recorded as 1.5 and the concentration giving a half-maximal response (EC50) is above 200 nM. For the same molecule, in assay [2], the S/N is 48.1, the concentration giving a half-maximal response (EC50) stood at 0.0704 nM, the “Relative Potency (% M2361 EC50)” value was determined as 7.5% and the “Relative Signal:Noise (% M2361)” value was found to be 73.2%. Besides, the EC50 in assay [3] was 0.649 nM.
